In data set [1] the test system is Mus musculus. Nature of the data set: Anti-aplastic anemia activity in C57BL/6J mouse model of immune-mediated bone marrow failure assessed as CD8+ T cells at 5 mg/kg, IG qd treated for 12 days by flow cytometry (reference value: 72.15 %). The format is functional. The conditions noted are these: time 12 day. A general note: Flow cytometry measures light scatter and fluorescence of single cells or particles in a stream.

The subject of data set [2] is Mus musculus. Briefly: Anti-aplastic anemia activity in C57BL/6J mouse model of immune-mediated bone marrow failure assessed as CD4+ T cells at 10 mg/kg, IG qd treated for 12 days by flow cytometry (reference value: 12.93 %). The class given is functional. The conditions noted are these: time 12 day.
Data set [3] relates to CD8-positive T cell. Briefly: Inhibition of CD3/CD28-activated CD8-positive T cell activation in BALB/c mouse lymph nodes assessed as decrease in CD69 expression level at 1 to 10 uM incubated for 72 hrs by flow cytometry. The format is functional, tissue-based. The conditions noted are these: Lymph node, dose 1-10 µM.
Data set [4] deals with CTLL-2. Nature of the data set: Induction of ferroptosis in mouse CTLL-2 cells assessed as increase in intracellular Ca2+ concentration at 10 uM incubated for 45 mins in presence of 2-APB by Fluo-4 AM dye based analysis. The format is functional, cell-based.
The subject of the next data set is IEC-6. Briefly: Induction of ferroptosis in rat IEC-6 cells assessed as increase in intracellular Ca2+ concentration at 10 uM by Fluo-4 AM dye based analysis. The format is functional, cell-based.
The subject of data set [5] is CTLL-2. Nature of the data set: Induction of ferroptosis in mouse CTLL-2 cells assessed as increase in intracellular Ca2+ concentration at 10 uM incubated for 60 mins in presence of EDTA by Fluo-4 AM dye based analysis. The class given is functional, cell-based.
Data set [6] deals with HepG2. Briefly: Cytotoxicity against human HepG2 cells assessed as inhibition of cell viability incubated for 72 hrs by CCK8 assay. The class given is functional, cell-based. The conditions noted are these: HepG2, 72 h. (Tetrazolium dyes change colour on reduction, which living cells bring about.)
For data set [7], the system named is CD8-positive T cell. Nature of the data set: Inhibition of CD3/CD28-activated CD8-positive T cell activation in BALB/c mouse lymph nodes assessed as decrease in lactate production at 1 to 10 uM incubated for 72 hrs. The class given is functional, tissue-based. The conditions noted are these: Lymph node, dose 1-10 µM.
Data set [8] in a line: Acute toxicity in 12 hr-fasted KM mouse assessed as abnormalities in animal at 10 g/kg, po administered as single dose measured for 14 days. The format is organism-based. The conditions noted are these: in vivo, 10000 mg/kg, 336 h, time 14 day.
Data set [9] deals with Mus musculus. Nature of the data set: Anti-aplastic anemia activity in C57BL/6J mouse model of immune-mediated bone marrow failure assessed as increase in white blood cells treated intragastrically once daily for 21 days. The format is functional, organism-based. Particulars: dose 5-15 mg/kg, route ig, time 21.0 day.
Data set [10] is described as follows: Cmax in Sprague-Dawley rat at 50 mg/kg, po measured for 0.083 to 24 hrs by HPLC analysis. The format is ADME, organism-based. The conditions noted are these: in vivo, time 0.083-24 hrs.
The subject of data set [11] is CTLL-2. Briefly: Induction of ferroptosis in mouse CTLL-2 cells assessed as increase in intracellular lipid peroxidation level at 30 uM incubated for 16 hrs by flow cytometry. The class given is functional, cell-based.
Data set [12] relates to CTLL-2. Briefly: Induction of ferroptosis in mouse CTLL-2 cells assessed as increase in ROS level at 10 uM incubated for 45 mins in presence of 2-APB. The format is functional, cell-based.
Data set [13] concerns Mus musculus. Nature of the data set: Anti-aplastic anemia activity in BALB/c mouse model of immune-mediated bone marrow failure assessed as increase in animal survival at 10 mg/kg, po treated for 14 days. The class given is functional, organism-based. The conditions noted are these: time 14.0 day.
The next data set has as its system NRK-52E. Nature of the data set: Cytotoxicity against rat NRK-52E cells assessed as inhibition of cell viability incubated for 72 hrs by CCK8 assay. The format is functional, cell-based.
Data set [14] relates to HepG2. Nature of the data set: Induction of ferroptosis in human HepG2 cells assessed as increase in intracellular Ca2+ concentration at 10 uM by Fluo-4 AM dye based analysis. The class given is functional, cell-based.
Data set [15] in a line: Oral bioavailability in Sprague-Dawley rat at 50 mg/kg measured for 0.083 to 24 hrs by HPLC analysis. Particulars: in vivo, time 0.083-24 hrs. The class given is ADME, organism-based.
Data set [16] deals with CTLL-2. Nature of the data set: Induction of ferroptosis in IL-2-stimulated mouse CTLL-2 cells assessed as increase in pERK level at 30 uM incubated for 6 hrs followed by Fer-1 addition measured after 10 hrs by Western blot analysis. The class given is functional, cell-based. The conditions noted are these: time 16.0 hrs. (Immunoblotting shows a protein as a band on a membrane.)

A short description of data set [17]: Induction of ferroptosis in mouse CTLL-2 cells assessed as increase in intracellular Ca2+ concentration incubated for 45 mins by Fluo-4 AM dye based analysis. The format is functional, cell-based. Particulars: CTLL-2, 0.75 h.
The test system of data set [18] is CTLL-2. Briefly: Induction of ferroptosis in mouse CTLL-2 cells assessed as increase in intracellular Ca2+ concentration at 10 uM incubated for 45 mins in presence of CM4620 by Fluo-4 AM dye based analysis. The class given is functional, cell-based.
Data set [19] relates to CTLL-2. Briefly: Induction of ferroptosis in mouse CTLL-2 cells assessed as increase in extracellular Ca2+ influx at 10 uM incubated for 24 hrs in presence of EDTA by Fluo-4 AM dye based analysis. The format is functional, cell-based.
Data set [20] concerns Mus musculus. Briefly: Anti-aplastic anemia activity in C57BL/6J mouse model of immune-mediated bone marrow failure assessed as increase in body weight at 5 to 15 mg/kg, IG qd treated for 21 days. The class given is functional, organism-based. The conditions noted are these: dose 5-15 mg/kg, time 21.0 day.
Data set [21] deals with Mus musculus. Nature of the data set: Anti-aplastic anemia activity in BALB/c mouse model of immune-mediated bone marrow failure assessed as increase in nucleated cells in bone marrow at 10 mg/kg, po treated for 14 days by H and E staining based analysis. The class given is functional, organism-based. The conditions noted are these: time 14.0 day.
Data set [22] relates to CD8-positive T cell. Nature of the data set: Inhibition of CD3/CD28-activated CD8-positive T cell activation in BALB/c mouse lymph nodes assessed as decrease in cluster formation of cells at 1 to 10 uM incubated for 72 hrs by microscopy. The conditions noted are these: Lymph node, dose 1-10 µM. The class given is functional, cell-based.
Data set [23] in a line: Drug metabolism in rat plasma assessed as cinnamic acid metabolite formation at 50 mg/kg, po measured for 24 hrs by HPLC-UV analysis. The format is ADME, organism-based. Particulars: in vivo.
Data set [24] is described as follows: Stability in rat plasma at 50 mg/kg, po measured for 24 hrs by HPLC analysis. The format is ADME, organism-based. The conditions noted are these: in vivo.
Data set [25] can be described thus: Drug metabolism in mouse bone marrow assessed as (4bR,9S)-1-(hydroxymethyl)-3,7-dimethoxy-11-methyl-6-oxo-6,8a,9,10-tetrahydro-5H-9,4b-(epiminoethano)phenanthren-4-yl cinnamate metabolite formation at 50 mg/kg, po measured for 0.083 to 8 hrs by HPLC analysis. The class given is ADME, organism-based. The conditions noted are these: in vivo, time 0.083-8 hrs.
The nature of data set [26]: Drug metabolism in mouse plasma assessed as (4bR,9S)-1-(hydroxymethyl)-3,7-dimethoxy-11-methyl-6-oxo-6,8a,9,10-tetrahydro-5H-9,4b-(epiminoethano)phenanthren-4-yl cinnamate metabolite formation administered orally by HRMS analysis. The format is ADME. Particulars: po.
Data set [27] is described as follows: Stability in mouse lymph node assessed as compound remaining at 50 mg/kg, po measured for 0.083 to 8 hrs by HPLC analysis. The format is ADME, organism-based. The conditions noted are these: in vivo, time 0.083-8 hrs.
Data set [28] in a line: Drug metabolism in mouse bone marrow assessed as cinnamic acid metabolite formation at 50 mg/kg, po measured for 0.083 to 8 hrs by HPLC analysis. The class given is ADME, organism-based. The conditions noted are these: in vivo, time 0.083-8 hrs.
The nature of data set [29]: Drug metabolism in rat plasma assessed as cinnamic acid metabolite formation at 50 mg/kg, po measured for 24 hrs by HRMS analysis. The format is ADME, organism-based. Particulars: in vivo.
Data set [30] in a line: Drug metabolism in mouse lymph node assessed as (4bR,9S)-1-(hydroxymethyl)-3,7-dimethoxy-11-methyl-6-oxo-6,8a,9,10-tetrahydro-5H-9,4b-(epiminoethano)phenanthren-4-yl cinnamate metabolite formation at 50 mg/kg, po measured for 0.083 to 8 hrs by HPLC analysis. The format is ADME, organism-based. Particulars: in vivo, time 0.083-8 hrs.
Data set [31] in a line: Drug metabolism in mouse liver assessed as cinnamic acid metabolite formation at 50 mg/kg, po measured for 0.083 to 8 hrs by HPLC analysis. The format is ADME, organism-based. Particulars: in vivo, time 0.083-8 hrs.

Active and inactive are the calls of the source. No cut-off for these calls is given here.

For orientation: IC50 means the point on the concentration scale where inhibition reaches its midpoint. The Cmax is the highest concentration seen after dosing. As a reminder, the bioavailability is the share of a dose that reaches the circulation, judged against a reference dose that is usually intravenous. Low values mean little systemic uptake, high ones much systemic uptake. Usually EC50 stands for the concentration that produces a half-maximal response. On to `COC1=C[C@@H]2[C@@H]3Cc4c(CO)cc(OC)c(OC(=O)/C=C/c5ccccc5)c4[C@]2(CCN3C)CC1=O`, for which the Activity in the data set on Mus musculus [1] is 60.82%; with Mus musculus [2] it was 21.08%; with IEC-6, “Not active; Elevation Was Smaller Than In Mouse Ctll-2 Cells”; in data set [8], “Non-toxic”; with Mus musculus [9] it was “Dose-dependent-effect”; with Mus musculus [13], “Active; All Mice Survived”. Also, in the data set on HepG2 [14], the Activity result was “Not active; Elevation Was Smaller Than In Mouse Ctll-2 Cells”. The inhibition result with CD8-positive T cell [3], in the data set with CD8-positive T cell [7] and in the data set with CD8-positive T cell [22] was “Active” in each case. For the same compound, the result in the data set with CTLL-2 [4], with CTLL-2 [12], with CTLL-2 [16] and in the data set with CTLL-2 [18] was inactive. Besides, the result with CTLL-2 [5], in the data set with CTLL-2 [11], in the data set with CTLL-2 [19], in the data set on Mus musculus [20] and in the data set on Mus musculus [21] was Active. The figures for the half-maximal inhibitory concentration (IC50) in the data set with HepG2 [6] and with NRK-52E were 492 µM and 705 µM, respectively. In [10], the Cmax came out at 3590 ng/mL. The bioavailability in data set [15] was 59.2%. Moreover, the EC50 in [17] was 10.1 µM.

With `COC1=C[C@@H]2[C@@H]3Cc4c(COC(=O)/C=C/c5ccccc5)cc(OC)c(OC(=O)/C=C/c5ccccc5)c4[C@]2(CCN3C)CC1=O`, the Drug metabolism entry in data set [23] was “metabolite_detected”; in data set [25], “metabolite_detected”; in data set [26], “metabolite_detected”; in [28], “metabolite_detected”; in [29], “metabolite_notdetected”; in data set [30], “metabolite_detected”. Also, the Drug metabolism entry in data set [31] is on record as “metabolite_detected”. In addition, the Stability entry in [24] and in [27] was “Unstable” in each case. In addition, the result in the data set on Mus musculus [13] was Active. Besides, the bioavailability in data set [15] was found to be 18%.

For the origin of these results see ChEMBL document CHEMBL6177973, “A Novel Compound 3a-M1, from Metabolites of Sinomenine Derivative 3a, Exerts Potent Anti-Aplastic Anemia Activity via IP3R/ORAI-Mediated CTL Ferroptosis” (J Med Chem, 2025).
